From patent US4136194A, “2-Phenyl-2-carboxyethyl 1-(p-chlorobenzoyl)-5-methoxy-2-methyl-3-indolylacetate and process for preparation thereof” (SPOFA, United Pharmaceutical Works, priority 1976, dated 1979) come the findings set out here.

Like-named read-outs stand apart in the source and are kept apart here.

What is called LD50 is the dose expected to kill half of the subjects tested. By ED50 is commonly meant the dose that gives a 50% effect, or the effect in half of the subjects.

Data set [1] in a line: Acute oral toxicity in mice. The note with it: mouse, in vivo, single dose, female mice, 10 days, limits after the slash. Here is the method: (§1) The 2-phenyl-2-carboxyethyl 1-(p-chlorobenzoyl)-5-methoxy-2-methyl-3-indolylacetate prepared in accordance with the invention was evaluated by comparison with 1-(p-chlorobenzoyl-5-methoxy-2-methyl-3-indolylacetic acid), the widely-used anti-inflammatory substance indomethacin. The two compounds were compared upon oral administration of their aqueous suspensions, with the addition of gum arabic, into the stomachs of test animals using a flexible metallic probe.
(§2) Acute toxicity was determined by administering both compounds in a single dose to female mice weighing 16-20 grams (groups of ten) and female rats weighing 130-150 grams (groups of ten). The mortality rate was followed for 10 days after administration of the dosage. The median lethal doses, LD50, are set forth in Table I below and were calculated by the method of J. Berkson, J. Am. Stat. Assoc. 50, 529, (1955).

Data set [2] is described as follows: Acute oral toxicity in rats. The note with it: rat, in vivo, single dose, female rats, 10 days, limits after the slash. Here is the method: as §1, §2
Data set [3] deals with kaolin oedema. As to the kind of experiment: Kaolin oedema inhibition. The conditions noted are these: 1 mg/kg p.o., one hour before kaolin, male rats, vs untreated control. In kind it is in vivo. Here is the method:
as §1
(§3) Anti-inflammatory activity was evaluated on kaolin oedema, carrageenin oedema and Freund adjuvant disease as standard model inflammatory syndromes in a group of six male rats.
The kaolin oedema of an extremity (J. Hillebrecht, Arzneim.-Forsch. 9, 625 (1969)) was produced in male rats weighing 130-150 grams by subplanatary injection of a 10% aqueous suspension of kaolin (0.1 ml). The indolylacetate of the invention and indomethacin were administered one hour before the injection of the suspension. The oedema size was measured 30 minutes, 3, 4.5 and 6 hours after the injection. The activity is conveniently expressed in percent of rate of inhibition in comparison with the untreated control group, the results being summarized in Table II below.

For data set [4], the system named is carrageenin oedema. Nature of the data set: Carrageenin oedema inhibition. It counts as in vivo. The note with it: 1.5 mg/kg p.o., male rats, vs untreated control. How it is done:
as §1, §3
The carrageenin oedema (Ch. Winter, Proc. Soc. Exp. Biol. Med. 111, 544 (1962)) was produced in male rats weighing 130-150 grams by subplanatary injection of a 0.5% carrageenin solution (0.1 ml). The dosage schedule and assay procedure as well as the results were identical with those described above for the kaolin oedema inhibition test.
(In the carrageenan paw model, swelling and tenderness develop within hours.)

Data set [5] concerns mice. Nature of the data set: Analgesic activity, intraperitoneal irritation test with 3% acetic acid. In kind it is in vivo, female mice. The note with it: Mus musculus, read-out: ED50 (analgesic activity). How it is done:
as §1
Analgesic activity was evaluated by the intraperitoneal irritation test with 3% acetic acid (L. B. Wilkin et al., J. Pharm. 133, 400 (1961)) in female mice weighing 16-20 grams (groups of 12 animals).

Data set [6] relates to gastric mucosa. In kind it is in vivo. The conditions noted are these: 8 mg/kg oral, starving female rats. How it is done:
as §1
Gastrotoxicity (adversary effect on gastric mucosa, A. Robert, J. E. Nezamis, Proc. Soc. Exp. Biol. Med. 99, 443 (1958)) was monitored by oral administration of the compounds being compared by testing starving female rats of 250-300 grams body weight (group of six animals). The evaluation was made by estimating the frequency of gastric erosions and ulcers. The relative gastrotoxicity of the two compounds is expressed by the respective standard criteria, ulceration index, as indicated in Table IV below.

Consider `COc1ccc2c(c1)c(CC(=O)OCC(C(=O)O)c1ccccc1)c(C)n2C(=O)c1ccc(Cl)cc1` (centres unmarked) [Compound of Invention, 2-phenyl-2-carboxyethyl 1-(p-chlorobenzoyl)-5-methoxy-2-methyl-3-indolylacetate], for which the LD50 at 240 h in data set [1] was 190 mg/kg; in data set [2], 140 mg/kg. For the same molecule, the Kaolin oedema inhibition in data set [3] is reported as 16%. In data set [4], this molecule showed a Carrageenin oedema inhibition of 15%. Moreover, the ED50 in data set [5] (oral, female mice, 3% acetic acid i.p.) came to 24.5 mg/kg.
Regarding `COc1ccc2c(c1)c(CC(=O)O)c(C)n2C(=O)c1ccc(Cl)cc1` [Indomethacin, 1-(p-chlorobenzoyl)-5-methoxy-2-methyl-3-indolylacetic acid], the 50% lethal dose (LD50) at 240 h was 18 mg/kg in data set [1] and 25 mg/kg in data set [2]. For the same molecule, in data set [3], the Kaolin oedema inhibition is 19%. In addition, in data set [4], the Carrageenin oedema inhibition was 14%. Moreover, the 50% effective dose (ED50) in data set [5] (po) came to 14.5 mg/kg. Moreover, in data set [6], the “Ulceration Index” value is given as 300.
